This note sets out measurements from patent US5441563A, “Highly insoluble azole embossing inhibitor and the use thereof” (Armstrong World Industries, Inc., priority 1994, dated 1995).

Data set [1] can be described thus: Inhibitor activity (IA), depth of chemical embossing and degree of expansion ranked against BTA-P (Table II). More on the design: key to Inhibitor Activity (IA): 1: Excellent; 2: Very Good; 3: Good; 4: Fair; 5: Poor; None. Particulars: for Inhibitor Activity (IA): 10% by weight inhibitor in ink, scale 1 to 5, BTA-P benchmark = 1, 7 mil plastisol, 185 °C, 1.9 min. How it is done:
Table II sets forth a number of properties of the examples and comparative examples which were made and tested. Most of these compounds were prepared using the direct milling procedure and then evaluated for inhibitor activity, ghosting and embossing definition.
The inhibited inks (at 10% by weight inhibitor concentration) were printed on 7 mils of an expandable plastisol coated onto a glass mat which was saturated with a non-expandable plastisol. This was done on a flat-bed gravure proof press using a 100 line screen step-wedge gravure plate. The steps ranged from a deep shadow tone to a shallow highlight tone. The inks printed and dried without any tack.
The printed samples were coated with 10 mils of a clear plastisol wearlayer and heated for 1.9±0.1 minutes at an air temperature of 185°±2° C. in a Werner. Mathis oven to fuse and expand the foamable plastisol to about 14 mils (a 2:1 blow ratio). The thickness of the printed coated areas (i.e., restricted area) was measured in mils and compared to the thickness of the expanded unprinted surrounding areas. This difference was recorded as depth of chemical embossing and was used along with the degree of expansion in the inhibited area to access the inhibitor activity (IA).
The inhibitor activity of the BTA-P derivative was established as the benchmark and on a scale of 1 to 5 was given a rating of 1 (five on the scale being less than one mil of overall chemical embossing). This is a subjective ranking where the other compounds were evaluated for inhibitor activity by comparing them to BTA-P, both numerically and visually.

Another data set in a line: physchem. The class given is physicochemical. To be noted: for Solubility in H2O / solubility at 24 h: water; for Solubility in H2O: 24 h.

≈ marks a conversion by molar mass, not a printed value. Like-named read-outs stand apart in the source and are kept apart here.

As for Tolyltriazole [TTA, reference compound], the “Inhibitor Activity (IA)” value in data set [1] amounted to 2. Besides, in the data set “physchem” (1440 min), the “Solubility in iPrOH” value is reported as 52.9 % BY WT. Moreover, the “Solubility in H2O” value in “physchem” was 0.55 % BY WT.
Consider `CC(n1nnc2ccccc21)n1c2ccccc2c2ccccc21` (stereo not shown) [BTA-C, 1-(1'-(Carbazo-9'-yl)Ethyl) Benzotriazole, reference compound], for which the “Inhibitor Activity (IA)” value in data set [1] is “N”.
Consider `c1ccc2c(c1)nnn2CNCn1nnc2ccccc21` [BTA-A, bis(benzotriazol-1-ylmethyl) amine], for which the “Inhibitor Activity (IA)” value in data set [1] is given as 1. For the same compound, the “Solubility in iPrOH” value in the data set “physchem” (1440 min) is 0.028 % BY WT. The compound also displayed a solubility at 24 h in “physchem” of 390 µg/mL (≈ 1400 µM).
Regarding `O=C1CNC(=O)N1Cn1nnc2ccccc21` [BTA-H], the “Inhibitor Activity (IA)” value in data set [1] was 5.
`c1ccc2[nH]cnc2c1` [BI, Benzimidazole]: in data set [1], the “Inhibitor effectiveness in words” value was “effective inhibitor” and the “Inhibitor Activity (IA)” value was determined as 2. Further, the “Solubility in iPrOH” value in the data set “physchem” (isopropyl alcohol, room temperature, 24 hours) is given as 15.30 % BY WT. Further, in the data set “physchem” (H2O, room temperature, 24 hours, read-out: Solubility in H2O), the solubility at 24 h was determined as 5000 µg/mL (≈ 42300 µM).
`O=C(O)CN(Cn1nnc2ccccc21)Cn1nnc2ccccc21` [BTA-G, N,N-bis(benzotriazol-1-ylmethyl) glycine]: in data set [1], the “Inhibitor Activity (IA)” value is listed as 1. For the same compound, the “Solubility in iPrOH” value in “physchem” (1440 min) came out at 0.914 % BY WT. The compound further had a solubility at 24 h in the data set “physchem” of 6900 µg/mL (≈ 20500 µM).
Take `c1ccc(-c2nc(NCn3nnc4ccccc43)nc(NCn3nnc4ccccc43)n2)cc1` [BTA-BG, 2,4-bis(benzotriazol-1'-ylmethyl) benzoguanamine]: the “Inhibitor Activity (IA)” value in data set [1] is on record as 4.
On to `S=C(NCn1nnc2ccccc21)NCn1nnc2ccccc21` [BTA-TU, 1,3-bis(benzotriazol-1-ylmethyl) thiourea], for which, in data set [1], the “Inhibitor Activity (IA)” value is on record as 2. In “physchem” (1440 min), the “Solubility in iPrOH” value worked out at 0.011 % BY WT. The same compound displayed a solubility at 24 h in the data set “physchem” of 10 µg/mL (≈ 29.6 µM).
In the case of `O=C(NCn1nnc2ccccc21)c1ccccc1` [BTA-PA, reference compound], the “Inhibitor Activity (IA)” value in data set [1] is listed as “N”.
The same measure, in the same setting: the value for `c1ccc2c(c1)nnn2Cn1nnc2ccccc21` [BTA-D, reference compound] was “N”.
For `c1ccc2c(c1)nnn2CNc1nc(NCn2nnc3ccccc32)nc(NCn2nnc3ccccc32)n1` [Example 3BTA-M], the “Inhibitor Activity (IA)” value in data set [1] was found to be 3.
On to `c1ccc2[nH]nnc2c1` [BTA, Benzotriazole, reference compound], for which the “Inhibitor Activity (IA)” value in data set [1] worked out at 2. For the same compound, the “Solubility in iPrOH” value in the data set “physchem” (1440 min) was found to be 53.9 % BY WT. The same compound gave a solubility at 24 h in the data set “physchem” of 19800 µg/mL (≈ 166000 µM).
As to `Cc1ccc2c(c1)nnn2CNC(=O)NCn1nnc2cc(C)ccc21` [Example 5-TTA-U, 1,3-bis(5'-tolyltriazol-1'-ylmethyl) urea], the “Inhibitor Activity (IA)” value in data set [1] is given as 3.
Same read-out and setting: the same measure for `O=C(NCn1nnc2ccccc21)NC(=O)NCn1nnc2ccccc21` [BTA-B, 1,5-Bis(Benzotriazol-1'-yl Methyl) Biuret]: 4; for `CCCCc1ccc2c(c1)nnn2CNC(=O)NCn1nnc2cc(CCCC)ccc21` [Example 5-BBTA-U, 1,3-Bis(5'-Butyl Benzotriazol-1'-yl Methyl) Urea]: 3.
Consider `O=C(NN(Cn1nnc2ccccc21)Cn1nnc2ccccc21)c1ccccc1` [BTA-HYR, 1-Bis(Benzotriazol-1'-yl Methyl)-2-Benzoyl Hydrazide], for which the “Inhibitor Activity (IA)” value in data set [1] turned out to be 1. Moreover, the “Solubility in iPrOH” value in the data set “physchem” (1440 min) worked out at 0.019 % BY WT. In the data set “physchem”, this compound registered a solubility at 24 h of 60 µg/mL (≈ 151 µM).
Take `O=S(=O)(NCn1nnc2ccccc21)c1cccc(S(=O)(=O)NCn2nnc3ccccc32)c1` [BTA-BDSA, 1(1',3'-benzenedisulfonamido)methyl benzotriazole]: in data set [1], the “Inhibitor Activity (IA)” value is on record as 1. The “Solubility in iPrOH” value in the data set “physchem” (1440 min) is 0.120 % BY WT. The compound further displayed a solubility at 24 h in “physchem” of 890 µg/mL (≈ 1790 µM).
For “1Bis(2-ethylhexyl)aminomethyltolyltriazole [TTA-EH, reference compound]”, in data set [1], the “Inhibitor Activity (IA)” value is on record as 2. Besides, the “Solubility in iPrOH” value in the data set “physchem” (1440 min) is more than 50 % BY WT. Moreover, the “Solubility in H2O” value in “physchem” was less than 0.01 % BY WT.
Take `c1ccc2c(c1)ncn2CN1CCN(Cn2cnc3ccccc32)CC1` [BI-P, N,N'-Bis(Benzimidazol-1-yl Methyl) Piperazine]: the “Inhibitor Activity (IA)” value in data set [1] is listed as 1. Also, the “Solubility in iPrOH” value in the data set “physchem” (1440 min) stood at 0.211 % BY WT. This compound also registered a solubility at 24 h in the data set “physchem” of 530 µg/mL (≈ 1530 µM).
The matching figures for `ON(Cn1nnc2ccccc21)Cn1nnc2ccccc21` [BTA-NOH, N,N-bis (benzotriazol-1-yl methyl) hydroxylamine]: 1, 1.08 % BY WT and 800 µg/mL (≈ 2710 µM).
On to `CS(=O)(=O)NCn1nnc2ccccc21` [BTA-MSA, 1-(1'-methanesulfonamido) methyl benzotriazole], for which the “Inhibitor Activity (IA)” value in data set [1] is 5.
Regarding `O=S(=O)(NCn1nnc2ccccc21)c1cccc2c(S(=O)(=O)NCn3nnc4ccccc43)cccc12` [BTA-NDSA, 1(1',5'-naphthalenedisulfonamido) methyl benzotriazole], the “Inhibitor Activity (IA)” value in data set [1] came out at 1. In the data set “physchem” (1440 min), the “Solubility in iPrOH” value is on record as 0.051 % BY WT. Further, in “physchem”, the solubility at 24 h is 510 µg/mL (≈ 930 µM).
Regarding `CC(N1CCCC1=O)n1nnc2ccccc21` (stereo not shown) [BTA-PY, 1-(1'-(2'-oxopyrrolidin-1'-yl)ethyl) benzotriazole], the “Inhibitor Activity (IA)” value in data set [1] worked out at 5.
Regarding `O=C(O)c1ccc(S(=O)(=O)NCn2nnc3ccccc32)cc1` [BTA-4CBSA, N-(Benzotriazol-1-yl Methyl)-4'-Carboxybenzene Sulfonamide], the “Inhibitor Activity (IA)” value in data set [1] is 1. Further, the “Solubility in iPrOH” value in “physchem” (1440 min) amounted to 0.137 % BY WT. The compound further had a solubility at 24 h in “physchem” of 110 µg/mL (≈ 331 µM).
Turning to `CN(Cn1nnc2ccccc21)C(=O)N(C)Cn1nnc2ccccc21` [BTA-DMU, 1,3-Bis(benzotriazol-1'-ylmethyl) N,N'-dimethyl urea], the “Inhibitor Activity (IA)” value in data set [1] was 3.
Regarding `O=C(NCn1nnc2ccccc21)NCn1nnc2ccccc21` [BTA-U, 1,3-bis(benzotriazol-1'-ylmethyl) urea], the “Inhibitor Activity (IA)” value in data set [1] came to 1. Also, the “Solubility in iPrOH” value in “physchem” (1440 min) is given as 0.08 % BY WT. Further, in the data set “physchem”, the solubility at 24 h came out at 20 µg/mL (≈ 62 µM).
Regarding “1Bis(hydroxyethyl)aminomethyltotyltriazole [TTA-HE, reference compound]”, in data set [1], the “Inhibitor Activity (IA)” value turned out to be 3. Further, in the data set “physchem” (1440 min), the “Solubility in iPrOH” value is recorded as more than 50 % BY WT. For the same compound, in “physchem”, the “Solubility in H2O” value is approximately 50 % BY WT.
